Each structure is given as a SMILES string.

The compound `N#Cc1ncc(F)cc1F` had a melting point of 32 °C.
In the case of `Cc1cc(NS(=O)(=O)c2ccc(N)cc2)nc(C)n1` it was 243 °C; in that of `CSc1nc2cc(N=Cc3ccccc3Cl)ccc2[nH]1`, 229 to 231 °C.
In the case of `Cc1ccc(S(=O)(=O)OCC(F)(F)F)cc1` it was 40 °C; in that of `Cn1c(=O)c2c(ncn2CCOC(=O)c2cccnc2)n(C)c1=O`, 152 °C.
Under `Cn1c(/C(C#N)=N/Nc2ccc([N+](=O)[O-])cc2)nc2ccccc21` stands 238 °C; under `CCC(=O)Nc1ccc(Cl)c(Cl)c1`, 92 °C.
Consider `CN(CCO)CCO`, for which the melting point was -21 °C.
Under `Cc1ccc(I)cc1[N+](=O)[O-]` stands 60 °C; under `NC(=O)CC(O)C(=O)O` (stereo not given), 148 °C; under `Cc1ccc(-c2cc(N)n(-c3ccccc3)n2)cc1`, 173 to 176 °C.
`O=C1CCC(=O)N1c1nnc(C(F)(F)F)s1` gave a melting point of 221 °C.
Under `Brc1ccc(-c2cccs2)cc1` stands 95 to 96 °C; under `O=C(O)C=Cc1ccccc1Br`, 215 to 216 °C.
The compound `COC(=O)c1scc(C)c1Cl` had a melting point of 76 to 78 °C.
Under `CN(C)c1nc(N(C)C)nc(N(C)C)n1` stands 173 °C; under `C=CCOc1c(Br)cc(C(C)(C)c2cc(Br)c(OCC=C)c(Br)c2)cc1Br`, 119 °C; under `O=C1CC(c2ccccc2)Oc2cc(O)ccc21` (stereo not given), 188 °C.
As for `c1ccc(-c2sc(-c3ccccc3)c(-c3ccccc3)c2-c2ccccc2)cc1`, the melting point was found to be 182 °C.
In the case of `COc1cc(C)oc(=O)c1` it was 86 °C.
In the case of `CC(C)c1ccc(Br)cc1` it was -12 °C; in that of `COc1cc(F)ccc1C#N`, 76 °C.
In the case of `CC(C)(C)c1ccc(Oc2ccc([N+](=O)[O-])cc2C=O)cc1` it was 134 to 136 °C; in that of `CCOC(=O)c1ccncc1`, 23 °C; in that of `C=C1C(=O)C23C(OC(C)=O)CC4C(C)(C)CCC(OC(C)=O)C4(C)C2C(OC(C)=O)CC12OC(C)(C)OC23` (stereo not given), 259 °C.
Compound `CC(C)(Cc1ccc(F)cc1)N=Cc1ccccc1` registered a melting point of 44 °C.
Under `N#CC(=Cc1ccc(O)cc1)C(=O)O` stands 250 to 253 °C; under `NC(=O)OCC(O)COc1ccc(Cl)cc1` (stereo not given), 90 °C.
Under `O=C(O)CNC(=O)c1ccc([N+](=O)[O-])cc1` stands 130 °C.
Under `Cc1cc(C(C#N)c2ccc(Cl)cc2)c(Cl)cc1NC(=O)c1cc(I)cc(I)c1O` (stereo not given) stands 218 °C; under `COC(=O)[C@@H](NC(=O)OCc1ccccc1)[C@@H](C)O`, 92 to 94 °C; under `Cc1onc(-c2ccccc2)c1C(=O)CBr`, 46 to 48 °C.
`Cc1ccc(/C=C(\C(N)=O)c2nc3ccccc3s2)cc1`: the melting point was determined as 148 °C.
Under `O=C(O)c1cc2cc([N+](=O)[O-])ccc2oc1=O` stands 200 °C; under `BrCc1sc(-c2ccccc2)nc1-c1ccccc1`, 112 to 114 °C; under `O=C(O)C1CCC(C(F)(F)F)CC1` (stereo not given), 63 to 65 °C.
Under `Cc1ccc(C=C(C#N)C#N)cc1` stands 132 to 133 °C; under `O=[N+]([O-])c1ccc2ccccc2c1O`, 123 to 125 °C; under `COc1ccc(C(=O)/C=C/c2cccc(OC)c2OC)c(O)c1`, 99.5 °C.
In the case of `CC1(C)C2CCC1(C)C(/N=C(\C(=O)c1ccccc1)c1ccccc1)C2/N=C(\C(=O)c1ccccc1)c1ccccc1` (stereo not given) it was 190 °C.
Regarding `O=C(Cc1cc(CC(=O)c2ccccc2)c([N+](=O)[O-])cc1[N+](=O)[O-])c1ccccc1`, the melting point lay in the range of 170 to 171 °C.
In the case of `O=C1CCCCCCCC1` it was 34 °C; in that of `CC(CCc1ccccc1)NC(C)C(O)c1cc(I)c(O)c(I)c1` (stereo not given), 212 °C; in that of `CCCC/C=C/CCCCC`, -61.1 °C.
In the case of `COc1cccc(OC)c1SC` it was 79 to 80 °C.
Compound `Clc1ccc(-c2ccc(Br)nc2)cn1` showed a melting point of 244 °C.
In turn, `COc1cscc1C(N)=O` displayed a melting point of 120 to 121 °C.
Compound `CC(CCl)(CCl)C(=O)O` had a melting point of 64 to 66 °C.
`COC1=CC(=O)NC1` had a melting point of 132 °C.
The compound `CC1(C)C=C(C(N)=O)C(C)(C)N1O` showed a melting point of 198 to 200 °C.
Compound `CCOCCO` came in with a melting point of -70 °C.
In the case of `Cc1cc(N)on1` it was 83 °C.
Under `FC(F)CC(F)(F)F` stands -102 °C; under `COc1ccc2c(c1)C(=O)C(=O)N2`, 200 °C.
In the case of `Cc1nn(C)c2c(N)ncnc12` it was 238 °C; in that of `CCOC(=O)c1c(C)c(C(C)=O)c(C)n1C`, 61 to 62 °C; in that of `O=C(c1ccc(OCc2ccccc2)cc1)c1cn(C(=O)c2ccc(OCc3ccccc3)cc2)c2ccccc12`, 181 °C.
In turn, `Cc1noc(-c2ccccc2C(=O)O)n1` came in with a melting point of 152 to 153 °C.
Under `NCC1CCCC(CN)C1` (stereo not given) stands -70 °C.
Turning to `O=C=Nc1ccc2c(c1)CCO2`, the melting point was 42 to 43 °C.
Under `CC(=O)OC(CCC(=O)c1ccccc1)c1ccccc1` (stereo not given) stands 73 °C; under `CC(=O)c1c(C)nc2cc3nc(C)c(C(C)=O)c(C)c3cc2c1C`, 246 to 248 °C; under `O=S(=O)(Cl)c1ccc(CBr)cc1`, 74 °C.
In the case of `Nc1cc([N+](=O)[O-])ccc1F` it was 101 °C; in that of `CSc1cc(-c2ccc(F)cc2)n[nH]1`, 101 to 103 °C.
Under `CCOc1ccc(-c2nnc3n2NC(c2ccc(OC)cc2)S3)cc1` (stereo not given) stands 198 to 200 °C.
On to `N#CC(=Cc1ccccc1)C(=O)O`, for which the melting point was 175 °C.
In the case of `O=CC(Br)(Br)Br` it was -57.5 °C; in that of `COc1ccc2[nH]c(C(=O)O)cc2c1`, 197 to 201 °C; in that of `c1ccc(O[Si](Oc2ccccc2)(Oc2ccccc2)Oc2ccccc2)cc1`, 49 °C.
In the case of `Nc1ccccc1OC1CCOCC1` it was 58 to 61 °C; in that of `CCCCCCCc1ccc(NC(=O)c2ccc(CC)cc2)cc1`, 102 °C.
In turn, `CCC(C)/N=C(\C)c1c(O)c2ccccc2n(-c2ccccc2)c1=O` (stereo not given) displayed a melting point of 193 to 194 °C.
In the case of `CCCCCCCCOC(=O)c1ccccc1C(=O)OCCCCCCCC(C)C` it was 98 °C; in that of `NCC(=O)NO`, 156 °C; in that of `COC1C=CC23c4cc5c(cc4COC2(O)CN(C)C3C1)OCO5` (stereo not given), 210 °C.
In the case of `CNCC(O)c1ccc(O)cc1` (stereo not given) it was 184 °C.
Turning to `Cc1cc(O)cc(C)c1C`, the melting point came to 106 °C.
Take `Clc1nsc2ccccc12`: the melting point is 39 °C.
Under `Cc1cc(C)c(N)c([N+](=O)[O-])c1` stands 67 °C.

In general, melting point refers to the temperature, or range, at which the solid turns liquid.

Source of the values: a melting point compilation (Tetko et al.).
